According to PMC2912414 (Biochemistry, 2010):

Molecular target: T1, HpxJ (Klebsiella michiganensis, UniProt B5B0L4)
T1 sequence (B5B0L4 1-413): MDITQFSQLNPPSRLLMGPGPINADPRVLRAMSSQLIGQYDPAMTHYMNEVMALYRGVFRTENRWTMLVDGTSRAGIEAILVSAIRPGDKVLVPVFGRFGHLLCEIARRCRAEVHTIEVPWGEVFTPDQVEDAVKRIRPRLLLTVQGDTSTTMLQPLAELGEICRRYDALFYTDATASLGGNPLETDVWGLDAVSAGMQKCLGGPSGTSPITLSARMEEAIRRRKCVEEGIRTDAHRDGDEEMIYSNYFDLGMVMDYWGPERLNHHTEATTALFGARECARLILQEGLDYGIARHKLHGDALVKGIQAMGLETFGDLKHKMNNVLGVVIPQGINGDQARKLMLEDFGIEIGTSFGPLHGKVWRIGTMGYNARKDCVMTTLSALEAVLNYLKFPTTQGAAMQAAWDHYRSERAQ
Assay: pre-steady-state PLP to PMP conversion
Type: biochemical
Settings: amino donor; glyoxylate as acceptor in HPLC assay

N[C@@H](CC(=O)O)C(=O)O [aspartate]
rate of first half reaction: an order of magnitude faster than the next fastest substrate, aspartate
